Source: US20160106770A1, “EPIGENETIC MECHANISMS OF ANTI-FIBROTIC ACTION FOR THE LIVER” (University of Southern California, priority 2011, published 2016)

Key:
[1] = test system: culture-activated rat primary HSCs; test: Morphologic reversal of culture-activated HSCs (phase contrast / UV autofluorescence microscopy); type: cell-based; conditions: concentration of 135 and 270 μM
Method: The purity of the cells, as determined by phase contrast microscopy and ultraviolet-excited fluorescence microscopy, exceeded 96%, and the viability as determined by trypan blue exclusion exceeded 94%. In vitro activation of HSCs was achieved by culturing rat HSCs in Dulbecco's modified Eagle's medium (DMEM) with 1.0 g/liter glucose, 10% fetal bovine serum and 1% antibiotics on plastic dish for 3, 5 or 7 days. Culture-activated rat primary HSCs were treated with the YGW or starch (control) aqueous extract at 25% (v/v). To obtain the extract, the YGW or starch powder (provided by S.P. Pharmaceutics Inc.) was suspended in DMEM at the concentration of 35 mg/ml, mixed thoroughly with a vortex for 5 min, and centrifuged at ×150 g for 30 min to collect the supernatant. This supernatant was designated as 100% extract and used after filter-sterilization. RA and BC (Sigma Chemical Co) were dissolved in DMSO and tested at the concentration of 67.5˜270 μM.

rat HSCs = test: Immunoblot analysis of cultured HSCs; type: cell-based; conditions: day 7 HSCs, RA or BC
Method: Whole cell extracts were prepared as previously described in Hazra S. et al., Peroxisome proliferator-activated receptor gamma induces a phenotypic switch from activated to quiescent hepatic stellate cells, J Biol Chem, 2004 Mar 19; 279 (12):11392-11401, which is incorporated by reference herein as though fully set forth. Equal amounts of the extract (20 μg) were separated by 8-15% SDS-PAGE and the proteins were transferred to nitrocellulose membranes (Bio-Rad, Hercules, Calif.). MeCP2, type I collagen, and β-actin were detected by incubating with rabbit polyclonal anti-MeCP2 (1:1000) (Abcam), antitype I collagen (1:4000), and anti-β-actin (1:5000) primary antibodies (Santa Cruz Biotechnology) in TBS (100 mM Tris-HCl, 1.5 M NaCl, pH 7.4) with 5% nonfat milk overnightat 4° C. followed by incubation with horseradish peroxidase conjugated goat anti-rabbit secondary antibodies (1:4000) (Sigma) at room temperature for 2 hr. The antigen-antibody complexes' chemiluminescence was detected by using the ECL detection kit (Pierce).

[2] = test system: culture-activated rat primary HSCs; test: Real time quantitative PCR of cultured HSCs; type: cell-based; conditions: for expression of Necdin / expression of Wnt3a / expression of Wnt10b: 270 μM, day 7 HSCs vs vehicle; for EZH2 expression: day 7 HSCs, RA or BC
From the text: HSCs were isolated from normal male Wistar rats, C57B1/6 and Coll-GFP mice by in situ digestion of the liver and arabinogalactan gradient ultracentrifugation by the Non-Parenchymal Liver Cell Core of the Southern California Research Center for ALPD and Cirrhosis as described previously in Cheng J H et al,. Wnt antagonism inhibits hepatic stellate cell activation and liver fibrosis, Am J Physiol Gastrointest Liver Physiol, 2007 Nov 15; and Zhu N L et al., The […] pathway causes epigenetic peroxisome proliferator-activated receptor gamma repression in hepatic stellate cells, J Biol Chem, 2010 Oct 1; 285(40):30463-30471, both of which are incorporated by reference herein in their entirety as though fully set forth. The purity of the cells, as determined by phase contrast microscopy and ultraviolet-excited fluorescence microscopy, exceeded 96%, and the viability as determined by trypan blue exclusion exceeded 94%. In vitro activation of HSCs was achieved by culturing rat HSCs in Dulbecco's modified Eagle's medium (DMEM) with 1.0 g/liter glucose, 10% fetal bovine serum and 1% antibiotics on plastic dish for 3, 5 or 7 days. Culture-activated rat primary HSCs were treated with the YGW or starch (control) aqueous extract at 25% (v/v). To obtain the extract, the YGW or starch powder (provided by S.P. Pharmaceutics Inc.) was suspended in DMEM at the concentration of 35 mg/ml, mixed thoroughly with a vortex for 5 min, and centrifuged at ×150 g for 30 min to collect the supernatant. This supernatant was designated as 100% extract and used after filter-sterilization. RA and BC (Sigma Chemical Co) were dissolved in DMSO and tested at the concentration of […]. Total RNA was extracted from the cells using TRIzol reagent (Invitrogen) or RNeasy Mini kit (Qiagen). One microgram of RNA was reverse transcribed to cDNA by using SuperScript III First-Strand Synthesis System (Invitrogen) and amplified by 40 cycles using primers listed below and the SYBR Green PCR Master mix reagent (AB Applied Biosystem). Each threshold cycle (Ct) value was first normalized to the 36B4 Ct value of a sample and subsequently compared between the treatment and control samples.

[3] = test system: TOPFLASH promoter activity in rat primary HSCs; test: TOPFLASH TCF promoter-luciferase reporter, transient transfection by electroporation; type: cell-based; conditions: day 7 primary HSCs
Method: TCF promoter-luciferase construct TOPFLASH (a gift from Dr. Randall Moon, Univ. of Washington, Seattle, Wash.) or a KB luciferase construct was used for transient transfection in the rat primary HSCs by electroporation using the NeonTM Transfection System (Invitrogen). The Renilla pRL-TK construct was used for standardization for transfection efficiency. Cell lysates were analyzed by the dual luciferase assay (Promega) on a luminometer. To assess the activity of IKK, IKK was immunoprecipitated by IKKα antibody and protein G-Sepharose, and the assay was performed at 30° C. for 1 hr in buffer containing 20 mM Tris HCl, pH 7.5, 20 mM MgCl2, 2 mM dithiothreitol, 20 μM ATP, 2 μg GST-IκBα, and [γ-32P]ATP. The reaction was stopped by addition of […] buffer and was resolved by 10% SDS-PAGE followed by a transfer onto a membrane for imaging.

Pparγ gene = test: Chromatin immunoprecipitation (ChIP) at the Pparγ gene in HSCs; type: cell-based, rat; conditions: day 7 HSCs, RA or BC
Method: For assessing Pparγ epigenetic regulation, carrier ChIP was performed using Raji cells as the source of carrier chromatin. For native ChIP, 20 μg of HSC chromatin was mixed with 80 μg of Raji cell chromatin. For cross-link ChIP, Raji cells (1.4×10^7 cells) were mixed to HSCs (0.2×10^6 cells) and fixed with 1% formaldehyde on the rotating platform for 5-10 minutes at room temperature followed by addition of glycine to a final concentration of 0.125M. After lysis of the cells with SDS buffer (1% SDS, 10 mM EDTA, 50 mM Tris-HCl pH8.1) with protease inhibitors, the lysates were sonicated and snap frozen in aliquots. For chromatin IP, diluted samples were first pre-cleared using protein G-agarose beads and then incubated with antibody against […], MeCP2, H3K27me2, H3K4me2 and […] (Abcam) at 1 μg/μl at 4° C. for overnight followed by precipitation with protein G agarose beads. After elution of immunoprecipitated complex, crosslinking was reversed with 5N NaCl and proteins digested with protease K. Extracted chromatin was subjected to real-time PCR using the primers flanking a segment within Pparγ promoter or exon as previously described in Mann J et al., MeCP2 controls an epigenetic pathway that promotes myofibroblast transdifferentiation and fibrosis, Gastroenterology, 2010 Feb; 138(2):705-14, 714, which is incorporated herein by reference as though fully set forth. Ct values of the samples with non-immune IgG were subtracted and compared to their respective input Ct values.

[4] = test system: BDL-induced cholestatic liver fibrosis in mice; test: Bile duct ligation (BDL) cholestatic liver fibrosis model; type: in vivo
Method: Male C57B1/6 and collagen α1(I) promoter-GFP (Coll-GFP) mice were subjected to ligation and scission of the common bile duct (BDL) to induce cholestatic liver fibrosis for HSC isolation or testing the therapeutic efficacy of RA. For the latter, after one week following BDL, RA was intraperitoneally injected daily at the dose of 0.1 mg/25 g body weight until the animals were sacrificed one week later for Sirius-red staining morphometry, immunohistochemistry, and qPCR analysis of the livers as described below.
After 3 days of the extract treatment, the cells were washed with cold phosphate-buffered saline (PBS) and fixed in 4% paraformaldehyde (PF). To stain α-smooth muscle actin (SMA), a fluorescein isothiocyanate (FITC) conjugated antibody (1:200, Sigma, Saint Louis, Mo.) was added as a primary antibody at 4° C. for overnight. After washing and blocking with 5% nonfat milk, fluorescence images were viewed by a Nikon microscope as described above. For intracellular lipid staining, HSCs treated with the extract for 3 days were cultured with retinol (5 μM) and palmitic acid (100 μM) (Sigma, Saint Louis, Mo.) for 48 hr, and fixed with 10% formalin in PBS. Oil Red O (0.5% w/v in isopropanol) was diluted with 67% volume of water, filtered, and added to the fixed HSCs. Apoptosis was detected in cultured HSCs and liver sections from BDL mice using a Cell Death Detection kit from Roche. For liver section immunostaining, liver tissues were fixed with 4% PF and embedded in freezing medium. Cryosections (7 μm) were washed with PBS, digested with 20 μg/ml proteinase K (Invitrogen, Carlsbad, Calif.), and blocked with 5% goat serum and 0.2% bovine serum albumin. The sections were then incubated with mouse anti-SMA antibody conjugated with FITC (Sigma, 1:400) and rabbit anti-desmin antibody (Thermo Scientific, Rockford, Ill., 1:400). After washing, the sections were incubated with goat anti-rabbit antibody conjugated with AlexaFluor 568 (Invitrogen, 1:400) and mouse anti-FITC antibody conjugated with DyLight 488 (Jackson ImmunoResearch, West Grove, Pa., 1:400). The sections were mounted with 4,6-diamidino-2-phenylindole (DAPI) (Invitrogen) and fluorescence images were visualized under a microscope. To quantify the percentage and density of HSCs in the liver after BDL with or without treatment of RA, 6 images were randomly captured using a 10× objective lens in 3 different sections and SMA+ and desmin+HSCs in the parenchyma were counted.
Total RNA was extracted from the cells using TRIzol reagent (Invitrogen) or RNeasy Mini kit (Qiagen). One microgram of RNA was reverse transcribed to cDNA by using SuperScript III First-Strand Synthesis System (Invitrogen) and amplified by 40 cycles using primers listed below and the SYBR Green PCR Master mix reagent (AB Applied Biosystem). Each threshold cycle (Ct) value was first normalized to the 36B4 Ct value of a sample and subsequently compared between the treatment and control samples.

[5] = RA ip daily 0.1 mg/25 g, immunohistochemistry SMA/Desmin, vs vehicle
[6] = RA ip daily 0.1 mg/25 g, vs vehicle

Structure (SMILES) | morphologic reversal of activated HSCs with increased UV-excited autofluorescence [1] | MeCP2 protein level (rat HSCs) | expression of Necdin [2] | expression of Wnt3a [2] | expression of Wnt10b [2] | EZH2 expression [2] | TOPFLASH activity [3] | H3K27me2 at the Pparγ exon (Pparγ gene) | MeCP2 enrichment in the Pparγ promoter (Pparγ gene) | TUNEL+HSCs or hepatocytes in the liver parenchyma ([4]; RA ip daily 0.1 mg/25 g) | density of Desmin+HSCs (increased by BDL) ([4]; RA ip daily 0.1 mg/25 g) | liver to body weight percentage ([4]; RA ip daily 0.1 mg/25 g body weight during second week of BDL) | plasma ALT levels ([4]; RA ip daily 0.1 mg/25 g body weight during second week, p=0.29 vs vehicle) | liver fibrosis by digital morphometric analysis of Sirius red-stained collagen fibers ([4]; RA ip daily 0.1 mg/25 g body weight during second week, vs vehicle) | reduction of the percentage of SMA+HSCs [4, 5] [%] | reduction of the percentage of SMA+MFs [4, 5] [%] | hepatic mRNA level of SMA [4, 6] | hepatic mRNA level of α1(I) procollagen [4, 6]
O=C(O)[C@H]1O[C@@H](Oc2cc3oc(-c4ccccc4)cc(=O)c3c(O)c2O)[C@H](O)[C@@H](O)[C@@H]1O [BC, baicalin] | morphologically reverse activated HSCs to quiescent cells | reduce | reduced | suppress | suppress | reduce | suppress | reduce | reduce |  |  |  |  |  |  |  |  | 
O=C(/C=C/c1ccc(O)c(O)c1)O[C@H](Cc1ccc(O)c(O)c1)C(=O)O [RA, rosmarinic acid] | morphologically reverse activated HSCs to quiescent cells | reduce | reduced | suppress | suppress | reduce | suppress | reduce | reduce | No TUNEL+HSCs or hepatocytes are detected | no effect | 6.8 ± 0.7 | 157+71 | significant attenuation | 75 | 40 | significantly reduced | significantly reduced
